Source: patent US10072125B2, “Thiourea-containing dendrimer and thiourea-containing hyperbranched polymer as well as preparation methods thereof and applications thereof” (priority 2014, dated 2018)
≈ marks a conversion by molar mass, not a printed value. Marks after values point to notes of the source that are not given here.

Legend:
Test in all cases: Antibacterial performance test, MIC by broth dilution
Type in all cases: cell-based
Enterococcus faecalis = conditions: 24 h at 37° C., 5×10^5 CFU/mL, read-out: MIC E. faecalis
Experimental: (§1) To evaluate the antimicrobial activity of each generation of polythiourea dendrimer as described in Example 3, the MICs (minimal inhibitory concentrations) of these dendrimers against different bacteria strains, including Staphylococcus aureus, Enterococcus faecalis, Escherichia coli, Staphylococcus epidermidis, Enterobacter cloacae and Proteus valgaris were determined.
(§2) The strains stored at −20° C. were inoculated on MH agar plates and incubated overnight at 37° C. The monoclonal colonies were cultured in 3 mL nutrient broth at 37° C. to reach the logarithmic growth period. Then the bacteria were diluted with the MH broth to 0.5 millet turbidity standard and further diluted to 1:100 with MH broth as a stock. The diluted bacteria should be inoculated within 15 min. The polythiourea dendrimers were diluted with sterile water into 200 mg/mL, filtered and sterilized. Gentamicin and amikacin were used as positive controls for Gram-negative and Gram-positive bacteria, respectively. Dispense 100 μL of M-H broth into all wells of 96-well plate, and then pipette 100 μL of M-G1-PEG, M-G2-PEG, M-G3-PEG, M-G4-PEG, antibiotics and MH broth in the first column in the order of labeling. After mixing well with the gun, transfer 100 μL from each well in the first column to the corresponding well in the second column. Repeat the procedure to column 10 and discard […], from column 10. Then 100 μL of bacteria was added to each well. The final bacterial solution concentration per well was 5×10^5 CFU/mL. On the outer periphery of the 96-well plate, 200 μL of the drug-free suspension was added as a sterile control. At the same time subculture the suspension in the agar plate, for assessing the purity of bacteria. The inoculated 96-well plates were shaken on a micro-shaker for 1 min, mixed thoroughly and placed in a wet box. After incubated for 24 h at 37° C., the minimum drug concentration of the clear well was observed by the naked eye as the MIC of the drug. At the same time, it was examined whether the growth of the control well was good and the sterile control well was clear. The plate culture of the suspension was examined to determine whether it was contaminated and whether the MIC value of the control strain was in the control range. This assay was repeated three times.

Staphylococcus aureus = conditions: 24 h at 37° C., 5×10^5 CFU/mL, read-out: MIC S. aureus
Experimental: as §1, §2

[1] = tested on: Staphylococcus epidermidis; conditions: 24 h at 37° C., 5×10^5 CFU/mL, read-out: MIC S. epidermidis
Experimental: as §1, §2

Enterobacter cloacae = conditions: 24 h at 37° C., 5×10^5 CFU/mL
Experimental: as §1, §2

Escherichia coli = conditions: 24 h at 37° C., 5×10^5 CFU/mL
Experimental: as §1, §2

Proteus valgaris = conditions: 24 h at 37° C., 5×10^5 CFU/mL
Experimental: as §1, §2

Compound | MIC (Enterococcus faecalis) [µg/mL] | MIC (Staphylococcus aureus) [µg/mL] | MIC [1] [µg/mL] | MIC E. cloacae (Enterobacter cloacae) | MIC E. coli (Escherichia coli) | MIC P. valgaris (Proteus valgaris)
NCC[C@H](O)C(=O)N[C@@H]1C[C@H](N)[C@@H](O[C@H]2O[C@H](CN)[C@@H](O)[C@H](O)[C@H]2O)[C@H](O)[C@H]1O[C@H]1O[C@H](CO)[C@@H](O)[C@H](N)[C@H]1O [Amikacin] | 4 (≈ 6.83 µM) | 2 (≈ 3.42 µM) | 0.5 (≈ 0.854 µM) | – | – | –
Gentamicin | – | – | – | 2** μg/mL | 1** μg/mL | 2** μg/mL
